Two compounds from ChEMBL document CHEMBL4130416, “Glycine-replaced derivatives of [Pro3,DLeu9]TL, a temporin L analogue: Evaluation of antimicrobial, cytotoxic and hemolytic activities” (Eur J Med Chem, 2017) can be followed below.

In series [1] the test system is HaCaT. Kind of series: Cytotoxicity against human HaCaT cells at 12.5 uM after 24 hrs by MTT assay relative to control. The series is classed as cell-based. Background: Tetrazolium assays rely on reduction of a dye to a coloured formazan, in cell work by metabolically active cells.
Series [2] has as its system Escherichia coli. Kind of series: Antimicrobial activity against Escherichia coli D21 after 18 to 20 hrs by microbroth dilution method. The series is classed as functional. Background: In broth dilution the organism is exposed to a series of concentrations in liquid medium.
For series [3], the system named is Candida albicans. Kind of series: Antimicrobial activity against Candida albicans ATCC 10231 after 18 to 20 hrs by microbroth dilution method. Format: functional.
Series [4] relates to Staphylococcus aureus. Kind of series: Antimicrobial activity against Staphylococcus aureus Cowan I after 18 to 20 hrs by microbroth dilution method. Format: functional.
Series [5] concerns Acinetobacter baumannii. Kind of series: Antimicrobial activity against Acinetobacter baumannii ATCC 19606 after 18 to 20 hrs by microbroth dilution method. The series is classed as functional. The settings on record: ATCC 19606 = CIP 70.34 = JCM 6841.
In series [6] the test system is HaCaT. Kind of series: Cytotoxicity against human HaCaT cells at 50 uM after 24 hrs by MTT assay relative to control. The series is classed as cell-based.
Series [7] relates to Pseudomonas aeruginosa. Kind of series: Antimicrobial activity against Pseudomonas aeruginosa ATCC 27853 after 18 to 20 hrs by microbroth dilution method. Format: functional.
The test system of series [8] is Staphylococcus epidermidis. Kind of series: Antimicrobial activity against Staphylococcus epidermidis ATCC 12228 after 18 to 20 hrs by microbroth dilution method. The series is classed as functional.
For the next series, the system named is Pseudomonas syringae. Kind of series: Antimicrobial activity against Pseudomonas syringae pv tabaci NCPPB 1918 after 18 to 20 hrs by microbroth dilution method. The series is classed as functional, Pseudomonas amygdali pv. tabaci.
In series [9] the test system is HaCaT. Kind of series: Cytotoxicity against human HaCaT cells at 6.25 uM after 24 hrs by MTT assay relative to control. The series is classed as cell-based.
In a further series the test system is Pichia kudriavzevii. Kind of series: Antimicrobial activity against Candida krusei ATCC 6258 after 18 to 20 hrs by microbroth dilution method. The series is classed as functional.
Series [10] concerns HaCaT. Kind of series: Cytotoxicity against human HaCaT cells at 25 uM after 24 hrs by MTT assay relative to control. Format: cell-based.
In another series the test system is Priestia megaterium. Kind of series: Antimicrobial activity against Bacillus megaterium Bm11 after 18 to 20 hrs by microbroth dilution method. Format: functional.
Series [11] can be described thus: Hemolytic activity against human erythrocytes at 3.125 uM after 40 mins relative to control. The series is classed as ADME, cell-based, Erythrocyte. The settings on record: read-out: Activity.
Series [12] relates to Escherichia coli. Kind of series: Antimicrobial activity against multisensitive Escherichia coli clinical isolate 2 after 18 to 20 hrs by microbroth dilution method. Format: functional.
The test system of series [13] is Candida albicans. Kind of series: Antimicrobial activity against Candida albicans clinical isolate 1 after 18 to 20 hrs by microbroth dilution method. The series is classed as functional.
The subject of a further series is Klebsiella pneumoniae. Kind of series: Antimicrobial activity against multisensitive Klebsiella pneumoniae after 18 to 20 hrs by microbroth dilution method. The series is classed as functional.
For series [14], the system named is Candida albicans. Kind of series: Antimicrobial activity against Candida albicans ATCC 10231 assessed as induction of membrane-perturbation at MIC measured every minute for 10 mins by SYTOX green fluorescence dye influx assay. The series is classed as functional, organism-based.
Series [15] can be described thus: Hemolytic activity against human erythrocytes at 50 uM after 40 mins relative to control. The settings on record: read-out: Activity. The series is classed as ADME, cell-based, Erythrocyte.
Series [16] is described as follows: Metabolic stability in 90% human serum assessed as parent compound remaining at 0.2 mM after 45 mins by RP-UHPLC analysis. Format: ADME, cell-free. The settings on record: read-out: Stability.
Series [17] has as its system HaCaT. Kind of series: Cytotoxicity against human HaCaT cells at 1.56 to 6.25 uM after 24 hrs by MTT assay. Format: cell-based.
A short description of series [18]: Hemolytic activity against human erythrocytes at 25 uM after 40 mins relative to control. Format: ADME, cell-based, Erythrocyte. Conditions: read-out: Activity.
The test system of series [19] is Staphylococcus epidermidis. Kind of series: Antimicrobial activity against Staphylococcus epidermidis ATCC 12228 assessed as membrane-perturbation measured every minute for 120 mins by SYTOX green fluorescence dye influx assay. Format: functional, organism-based.
For series [20], the system named is Pseudomonas aeruginosa. Kind of series: Antimicrobial activity against multisensitive Pseudomonas aeruginosa after 18 to 20 hrs by microbroth dilution method. The series is classed as functional.
The subject of series [21] is Staphylococcus aureus. Kind of series: Antimicrobial activity against methicillin resistant Staphylococcus aureus clinical isolate 1 after 18 to 20 hrs by microbroth dilution method. The series is classed as functional.
The nature of series [22]: Hemolytic activity against human erythrocytes at 6.25 uM after 40 mins relative to control. Format: ADME, cell-based, Erythrocyte. The settings on record: read-out: Activity.
Series [23] can be described thus: Hemolytic activity against human erythrocytes at 12.5 uM after 40 mins relative to control. The settings on record: read-out: Activity. The series is classed as ADME, cell-based, Erythrocyte.
Series [24] has as its system Staphylococcus aureus. Kind of series: Antimicrobial activity against methicillin resistant Staphylococcus aureus clinical isolate 2 after 18 to 20 hrs by microbroth dilution method. The series is classed as functional.
The subject of series [25] is Escherichia coli. Kind of series: Antimicrobial activity against multisensitive Escherichia coli clinical isolate 1 after 18 to 20 hrs by microbroth dilution method. Format: functional.
The nature of series [26]: Metabolic stability in 90% human serum assessed as parent compound remaining at […] after 120 mins by RP-UHPLC analysis. The series is classed as ADME, cell-free. The settings on record: read-out: Stability.
For series [27], the system named is Staphylococcus aureus. Kind of series: Antimicrobial activity against beta-lactamase resistant Staphylococcus aureus after 18 to 20 hrs by microbroth dilution method. Format: functional.
Series [28] concerns Acinetobacter baumannii. Kind of series: Antimicrobial activity against Acinetobacter baumannii ATCC 19606 assessed as induction of membrane-perturbation at MIC measured every minute for 120 mins by SYTOX green fluorescence dye influx assay. The settings on record: ATCC 19606 = CIP 70.34 = JCM 6841. The series is classed as functional, organism-based.
Series [29] concerns Candida albicans. Kind of series: Antimicrobial activity against Candida albicans clinical isolate 2 after 18 to 20 hrs by microbroth dilution method. Format: functional.
Series [30] deals with Staphylococcus aureus. Kind of series: Antimicrobial activity against multisensitive Staphylococcus aureus after 18 to 20 hrs by microbroth dilution method. Format: functional.
In series [31] the test system is Staphylococcus aureus. Kind of series: Antimicrobial activity against macrolid resistant Staphylococcus aureus after 18 to 20 hrs by microbroth dilution method. The series is classed as functional.

Values after ≈ are worked out from the molar mass of the structure shown. Active and inactive are the calls of the source. The rule behind the calls is not given here. Where a SMILES comes first, the peptide text is derived from it. [ ]: non-standard residue; d: D form. Bounds are passed on as bounds.

`CC[C@H](C)[C@H](NC(=O)[C@H](CCCNC(=N)N)NC(=O)[C@@H](Cc1c[nH]c2ccccc12)NC(=O)[C@@H](CC(C)C)NC(=O)[C@H](Cc1ccccc1)NC(=O)[C@H](CCCCN)NC(=O)[C@H](CO)NC(=O)[C@H](Cc1ccccc1)NC(=O)[C@H](Cc1c[nH]c2ccccc12)NC(=O)[C@@H]1CCCN1C(=O)[C@@H](NC(=O)[C@@H](N)Cc1ccccc1)C(C)C)C(=O)N[C@@H](CC(C)C)C(N)=O` (H-FVPWFSKF[dL][dW]RIL-NH2): the Activity with HaCaT [1] worked out at 19.21%; in the series with HaCaT [6], 96.77%; with HaCaT [9] it was 15%; in the series on HaCaT [10], 35.34%. The MIC (usually the lowest concentration that inhibits growth of the organism) with Escherichia coli [2] was 25 µM (≈ 43.5 µg/mL); in the series on Candida albicans [3] it was 3.12 µM (≈ 5.43 µg/mL); against Staphylococcus aureus [4], 3.12 µM (≈ 5.43 µg/mL); in the series on Acinetobacter baumannii [5], 3.12 µM (≈ 5.43 µg/mL); with Pseudomonas aeruginosa [7], 50 µM (≈ 86.9 µg/mL); in [8], 1.56 µM (≈ 2.71 µg/mL). Further, the minimum inhibitory concentration (MIC) against Pseudomonas syringae, in the series on Pichia kudriavzevii and against Priestia megaterium was 3.12 µM (≈ 5.43 µg/mL) in each case.
`CC[C@H](C)[C@H](NC(=O)[C@H](CCCNC(=N)N)NC(=O)[C@H](Cc1c[nH]c2ccccc12)NC(=O)[C@@H](CC(C)C)NC(=O)[C@H](Cc1ccccc1)NC(=O)[C@H](CCCCN)NC(=O)[C@H](CO)NC(=O)[C@H](Cc1ccccc1)NC(=O)[C@H](Cc1c[nH]c2ccccc12)NC(=O)[C@@H]1CCCN1C(=O)[C@@H](NC(=O)[C@@H](N)Cc1ccccc1)C(C)C)C(=O)N[C@@H](CC(C)C)C(N)=O` (H-FVPWFSKF[dL]WRIL-NH2): the Activity was 0% in the series with HaCaT [1], 89.3% with HaCaT [6], “Non-Toxic” with HaCaT [17] and 32.1% in the series on HaCaT [10]. Moreover, in [11], the hemolysis at 40 min, 3.125 µM was 2%. Further, the MIC against Escherichia coli [12] was 50 µM (≈ 86.9 µg/mL); in the series with Escherichia coli [2], 25 µM (≈ 43.5 µg/mL); in the series on Candida albicans [13] it was 25 µM (≈ 43.5 µg/mL); against Candida albicans [3], 3.12 µM (≈ 5.43 µg/mL); with Staphylococcus aureus [4], 3.12 µM (≈ 5.43 µg/mL); against Klebsiella pneumoniae, > 50 µM. Further, the minimal inhibitory concentration (MIC) against Acinetobacter baumannii [5] is 3.12 µM (≈ 5.43 µg/mL); against Pseudomonas aeruginosa [7], > 50 µM; in [8], 1.56 µM (≈ 2.71 µg/mL); in the series on Pseudomonas syringae it was 1.56 µM (≈ 2.71 µg/mL); against Pseudomonas aeruginosa [20] it was > 50 µM; with Pichia kudriavzevii, 3.12 µM (≈ 5.43 µg/mL). Besides, the minimum inhibitory concentration (MIC) against Staphylococcus aureus [21] is 6.25 µM (≈ 10.9 µg/mL); in the series on Staphylococcus aureus [24], 6.25 µM (≈ 10.9 µg/mL); against Escherichia coli [25], 50 µM (≈ 86.9 µg/mL); with Staphylococcus aureus [27] it was 6.25 µM (≈ 10.9 µg/mL); against Priestia megaterium it was 1.56 µM (≈ 2.71 µg/mL); against Candida albicans [29], 25 µM (≈ 43.5 µg/mL). In addition, the minimal inhibitory concentration (MIC) with Staphylococcus aureus [30] and in the series with Staphylococcus aureus [31] was 6.25 µM (≈ 10.9 µg/mL) throughout. In addition, the result (with Candida albicans [14]; in series [19]; with Acinetobacter baumannii [28]) was Active. Further, the hemolysis at 40 min, 50 µM in series [15] amounted to 37%. In series [16], the remaining at 0.75 h, 200 µM is 80%. Also, the hemolysis at 40 min, 25 µM in [18] came to 20%. Further, the hemolysis at 40 min, 6.25 µM in series [22] was 4%. Further, in [23], the hemolysis at 40 min, 12.5 µM was found to be 7%. The remaining at 2 h in [26] stood at 50%.
